Results: patent US8709764B2, “Enzymatic demethylation of flavonoids” (Universiteit Gent, priority 2005, dated 2014)

Key:
[1] = cited from earlier work
[2] = test system: Eubacterium limosum ATCC 8486; assay: Incubation of IX and 8-PN with Eubacterium limosum for 13 days; assay type: in vitro ADME; conditions: E. limosum, 8-PN as substrate, 13 days
Description: Eubacterium limosum ATCC 8486 and Peptostreptococcus productus ATCC 27340 were obtained from the German Collection of Microorganisms and Cell Cultures (DSMZ, Braunschweig, Germany). E. limosum was incubated for 13 days in Brain Heart Infusion broth (with 0.5 g/l cystein-HCl) with 25 mg/l of IX and 8-PN under anaerobic conditions (Table 2). This strain was able to convert IX into 8-PN. […] This feature is clearly different from the metabolic pathway as observed in liver microsomes wherein 8-PN is extensively further metabolised [Nikolic et al. (2005) J. of Mass Spectrom. 40, 289-299; Nikolic et al. (2004) Drug Metabolism and Disposition 32, 272-279].

[3] = test system: fecal culture B supplemented with E. limosum; assay: Supplementation of selected E. limosum strain to non-converting fecal culture B incubated with IX; assay type: in vitro ADME, human; conditions: 8-PN concentration day one versus day seven
Description: The most efficient E. limosum strain, obtained from the selection experiment in example 2, was supplemented to the originally non-converting culture B of example 1, to examine the capacity of this strain to initiate the production of 8-PN in the complex environment of a fecal suspension. The strain was added to the culture in proportions ranging from 0% up to 100% (v/v). This mixture was incubated with 10% (v/v) of 25 mg/L IX for a period of seven days in Brain Heart Infusion broth (with 0.5 g/l cystein-HCl) under anaerobic conditions. The concentration of 8-PN was monitored every two days (FIG. 7).

[4] = Incubation of X or IX with human fecal cultures A-D for 8 days, conversion products detected by HPLC; assay type: in vitro ADME; conditions: human, 25 mg/l substrate, 8 days anaerobic, average (stdev) molar percentage relative to dosed flavonoid
Description: (§1) Fecal slurries of 20% (w/v) fresh fecal samples were prepared by homogenizing the feces with phosphate buffered saline (0.1 M, pH 7) containing 1 g/l sodiumthioglycolate as reducing agent. The particulate material was removed by centrifugation (1 min, 500×g). The supernatant is hereafter called “the culture”.
(§2) The capacity of the cultures obtained from fecal samples A, B, C and D (further referred as cultures A-D) to degrade or transform the hop prenylflavonoid IX was tested by incubating the fecal cultures (10% (v/v)) in Brain Heart Infusion broth (with 0.5 g/l cystein-HCl) with 25 mg/l of isoxanthohumol for a period of 8 days under anaerobic conditions. Extracts of the incubations at days 0 and 8 were assayed for bioactive transformation products of IX using a Yeast Estrogenic Screen, according to De Boever et al. (2001) Env. Health Perspectives 109, 691-697, based on Routledge & Sumpter (1996) Environ. Toxicol. Chem. 15, 241-248. In brief, Saccharomyces cerevisiae, was transformed with the human estrogen receptor (ERα) gene, together with expression plasmids containing responsive elements and the lacZ reporter gene (encoding the enzyme β-galactosidase). β-galactosidase activity is quantified at 540 nm by the conversion of the chromogenic substance chlorophenol red-β-D-galactopyranoside into chlorophenol red. The bioassay response is expressed as the absorbance at 540 nm divided by the optical density at 630 nm [(A540/A630)net]. The estrogenic activity of the samples was expressed as percentage equivalence to 10 nM estradiol (E2) which elicited a 100% response in the estrogen receptor bioassay. The bioassays were performed in 96-well plates in which 10 μL of the test compounds were tested and incubated with 240 μL of the genetically modified yeast (optical density of 0.25 at 610 nm). Serial dilutions of the test compounds were made in dimethylsulfoxide, which allowed generating dose-response curves for […]. The data were fitted by a 4 parametric logistic model using the Marquardt-Levenberg algorithm (Sigmaplot 4.0, SPSS Inc., Chicago, Ill., USA) (De Boever et al. (2001) Env. Health Perspectives 109, 691-697).
(§3) To further test this transformation, cultures A-D (10% (v/v)) were incubated for 8 days in Brain Heart Infusion broth (with 0.5 g/l cystein-HCl) with either X or IX at a concentration of 25 mg/l under anaerobic conditions and conversion products were detected by HPLC (Table 1). […] However, in culture C almost 40% of 8-PN was recovered, which explains the increase in estrogenic properties of culture C.

human fecal cultures = assay: as above; assay type: in vitro ADME; conditions: all fecal samples A-D, also with autoclaved cultures (non-enzymatic isomerisation)
Description: as §1, §2, §3

[5] = rats, 1000 mg/kg body weight of X; cited from earlier work

| Further degradation of 8-PN [2] | recovery at 8 days, 25 mg/l ([4]; human fecal culture A (10% v/v), fecal Sample A) | recovery at 8 days, 25 mg/l ([4]; human fecal culture B (10% v/v), fecal Sample B) | recovery at 8 days, 25 mg/l ([4]; human fecal culture C (10% v/v), fecal Sample C) | recovery at 8 days, 25 mg/l ([4]; human fecal culture D (10% v/v), fecal Sample D) | Conversion of X to IX (human fecal cultures) | SMILES | Concentration needed for harmful in-vivo activity [1] | Further conversion of 8-PN [3] | Share of recovered flavonoids in feces that was unchanged X [5] |
| --- | --- | --- | --- | --- | --- | --- | --- | --- | --- |
| did not further degrade 8-PN |  |  |  |  |  | CC(C)=CCc1c(O)cc(O)c2c1O[C@H](c1ccc(O)cc1)CC2=O [8-PN, 8-prenylnaringenin] | ~100 µg/mL | No further conversion of 8-PN was detected |  |
|  | 74.9% | 80.5% | 73.6% | 65.4% | slightly converted to IX | COc1cc(O)c(CC=C(C)C)c(O)c1C(=O)/C=C/c1ccc(O)cc1 [X, 2′,4,4′-trihydroxy-3′-prenyl-6′-methoxychalcone] |  |  | 89% |
